Measurements published in ChEMBL document CHEMBL4052645, “Discovery of potent and efficacious pyrrolopyridazines as dual JAK1/3 inhibitors” (Bioorg Med Chem Lett, 2017).

How the values were obtained:
[1] = target: Serine/threonine-protein kinase N2 (Homo sapiens) (UniProt Q16513); experiment: Inhibition of human PKN2 (E634 to C948 residues) expressed in bacterial expression system assessed as residual activity at 50 nM by KINOMEscan assay relative to control
[2] = target: Rho-associated protein kinase 2 (Homo sapiens, UniProt O75116); experiment: Inhibition of human ROCK2 (M1 to T431 residues) expressed in mammalian expression system assessed as residual activity at 50 nM by KINOMEscan assay relative to control
Sequence of Rho-associated protein kinase 2 (O75116 whole entry, looked up, the tested form may be a part): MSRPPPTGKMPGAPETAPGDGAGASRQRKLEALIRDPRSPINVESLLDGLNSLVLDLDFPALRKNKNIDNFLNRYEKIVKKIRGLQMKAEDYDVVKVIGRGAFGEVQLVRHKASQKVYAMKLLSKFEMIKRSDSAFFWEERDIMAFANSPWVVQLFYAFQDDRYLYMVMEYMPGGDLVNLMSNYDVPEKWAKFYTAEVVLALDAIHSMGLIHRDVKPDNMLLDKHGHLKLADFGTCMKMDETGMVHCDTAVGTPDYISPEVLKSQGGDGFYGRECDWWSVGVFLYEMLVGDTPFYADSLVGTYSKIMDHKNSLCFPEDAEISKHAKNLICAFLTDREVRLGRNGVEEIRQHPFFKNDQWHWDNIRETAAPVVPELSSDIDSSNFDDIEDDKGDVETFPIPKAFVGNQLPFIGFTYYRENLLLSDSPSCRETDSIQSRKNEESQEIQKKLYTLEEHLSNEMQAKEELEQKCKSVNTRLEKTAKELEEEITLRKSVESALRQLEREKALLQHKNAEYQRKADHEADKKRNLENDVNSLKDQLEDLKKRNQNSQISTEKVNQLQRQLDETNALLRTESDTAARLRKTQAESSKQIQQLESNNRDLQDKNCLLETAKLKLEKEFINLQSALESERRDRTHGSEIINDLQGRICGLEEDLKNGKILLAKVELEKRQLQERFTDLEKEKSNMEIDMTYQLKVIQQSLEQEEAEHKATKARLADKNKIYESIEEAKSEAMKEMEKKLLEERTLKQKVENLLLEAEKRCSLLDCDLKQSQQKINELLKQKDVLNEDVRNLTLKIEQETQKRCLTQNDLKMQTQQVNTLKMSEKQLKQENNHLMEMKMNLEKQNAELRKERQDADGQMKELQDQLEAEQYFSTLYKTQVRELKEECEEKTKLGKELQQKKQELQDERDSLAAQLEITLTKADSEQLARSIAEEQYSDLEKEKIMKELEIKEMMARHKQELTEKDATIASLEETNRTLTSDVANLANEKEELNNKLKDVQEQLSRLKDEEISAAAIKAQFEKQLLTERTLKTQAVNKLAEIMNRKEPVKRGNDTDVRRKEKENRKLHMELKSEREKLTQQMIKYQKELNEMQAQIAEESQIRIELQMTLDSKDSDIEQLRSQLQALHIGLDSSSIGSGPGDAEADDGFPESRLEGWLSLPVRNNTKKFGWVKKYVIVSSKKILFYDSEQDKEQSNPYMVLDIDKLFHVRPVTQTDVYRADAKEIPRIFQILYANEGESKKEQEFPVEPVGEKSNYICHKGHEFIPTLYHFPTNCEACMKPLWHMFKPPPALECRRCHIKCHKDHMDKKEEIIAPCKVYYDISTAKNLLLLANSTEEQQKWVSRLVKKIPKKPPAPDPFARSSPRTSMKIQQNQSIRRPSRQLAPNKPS

[3] = target: Protein kinase C delta type (Homo sapiens) (UniProt Q05655); experiment: Inhibition of human PKCD (Q328 to D676 residues) expressed in bacterial expression system assessed as residual activity at 50 nM by KINOMEscan assay relative to control
[4] = target: Serine/threonine-protein kinase PAK 3 (Homo sapiens) (UniProt O75914); experiment: Inhibition of wild-type human full length PAK3 (M1 to R544 residues) expressed in bacterial expression system assessed as residual activity at 50 nM by Kinomescan method relative to control
Sequence of Serine/threonine-protein kinase PAK 3 (Homo sapiens) (O75914 whole entry, looked up, the tested form may be a part): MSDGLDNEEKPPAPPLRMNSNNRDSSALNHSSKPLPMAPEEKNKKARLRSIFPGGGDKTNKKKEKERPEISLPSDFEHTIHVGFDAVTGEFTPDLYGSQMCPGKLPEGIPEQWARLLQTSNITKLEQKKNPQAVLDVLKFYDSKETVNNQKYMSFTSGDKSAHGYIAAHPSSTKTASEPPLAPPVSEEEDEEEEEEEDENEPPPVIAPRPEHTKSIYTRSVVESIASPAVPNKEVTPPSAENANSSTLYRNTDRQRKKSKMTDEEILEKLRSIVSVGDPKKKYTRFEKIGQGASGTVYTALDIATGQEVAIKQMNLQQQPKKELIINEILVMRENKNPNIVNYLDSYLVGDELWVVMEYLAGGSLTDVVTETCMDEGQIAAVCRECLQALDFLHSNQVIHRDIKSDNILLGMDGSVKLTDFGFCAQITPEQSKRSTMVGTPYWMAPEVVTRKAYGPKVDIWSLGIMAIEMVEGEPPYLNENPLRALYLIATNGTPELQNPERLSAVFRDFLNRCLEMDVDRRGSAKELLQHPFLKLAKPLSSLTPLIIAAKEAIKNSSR

[5] = target: Mast/stem cell growth factor receptor Kit (Homo sapiens) (UniProt P10721); experiment: Inhibition of wild-type human partial length KIT (I571 to D952 residues) expressed in bacterial expression system assessed as residual activity at 50 nM by Kinomescan method relative to control
[6] = target: Receptor-interacting serine/threonine-protein kinase 4 (Homo sapiens) (UniProt P57078); experiment: Inhibition of wild-type human partial length ANKRD3 (M1 to V303 residues) expressed in mammalian expression system assessed as residual activity at 50 nM by Kinomescan method relative to control
Sequence of Receptor-interacting serine/threonine-protein kinase 4 (Homo sapiens) (P57078 whole entry, the tested form may be a part, canonical isoform): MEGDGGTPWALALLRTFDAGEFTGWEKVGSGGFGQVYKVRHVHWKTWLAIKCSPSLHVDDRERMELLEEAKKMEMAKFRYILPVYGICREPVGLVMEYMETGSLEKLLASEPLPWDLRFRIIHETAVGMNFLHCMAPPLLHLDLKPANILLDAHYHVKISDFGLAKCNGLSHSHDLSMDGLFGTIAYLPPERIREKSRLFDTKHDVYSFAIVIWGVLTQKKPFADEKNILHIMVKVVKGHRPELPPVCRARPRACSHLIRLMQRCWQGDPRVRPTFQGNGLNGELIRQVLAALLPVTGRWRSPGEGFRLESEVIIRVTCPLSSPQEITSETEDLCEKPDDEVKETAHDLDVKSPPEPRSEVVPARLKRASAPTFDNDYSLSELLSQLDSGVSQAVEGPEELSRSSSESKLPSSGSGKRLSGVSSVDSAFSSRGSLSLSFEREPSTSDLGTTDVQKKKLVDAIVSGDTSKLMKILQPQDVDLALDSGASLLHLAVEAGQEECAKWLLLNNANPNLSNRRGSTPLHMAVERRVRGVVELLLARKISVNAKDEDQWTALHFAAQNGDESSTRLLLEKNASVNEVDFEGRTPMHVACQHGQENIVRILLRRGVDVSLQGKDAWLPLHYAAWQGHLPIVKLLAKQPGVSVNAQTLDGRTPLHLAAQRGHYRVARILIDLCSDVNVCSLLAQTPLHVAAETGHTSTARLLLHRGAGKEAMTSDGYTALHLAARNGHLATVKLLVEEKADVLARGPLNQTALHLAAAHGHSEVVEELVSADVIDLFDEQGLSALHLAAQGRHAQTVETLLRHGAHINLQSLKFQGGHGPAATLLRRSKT

[7] = tested on: Phosphatidylinositol 4,5-bisphosphate 3-kinase catalytic subunit alpha isoform (Homo sapiens), P42336 [M1043I]; experiment: Inhibition of human partial length PIK3CA M1043I mutant (R108 to N1068 residues) expressed in mammalian expression system assessed as residual activity at 50 nM by Kinomescan method relative to control
[8] = target: Cyclin-dependent kinase 13 (Homo sapiens) (UniProt Q14004); experiment: Inhibition of wild-type human partial length CDC2L5 (H675 to S1054 residues) expressed in mammalian expression system assessed as residual activity at 50 nM by Kinomescan method relative to control
[9] = target: Receptor-type tyrosine-protein kinase FLT3 (Homo sapiens) (UniProt P36888); experiment: Inhibition of wild-type human partial length FLT3 (V592 to Y969 residues) expressed in bacterial expression system assessed as residual activity at 50 nM by Kinomescan method relative to control
[10] = target: Mitogen-activated protein kinase 11 (Homo sapiens) (UniProt Q15759); experiment: Inhibition of wild-type human full length p38-beta (M1 to Q364 residues) expressed in bacterial expression system assessed as residual activity at 50 nM by Kinomescan method relative to control
[11] = target: Ephrin type-A receptor 1 (Homo sapiens) (UniProt P21709); experiment: Inhibition of wild-type human partial length EPHA1 (V588 to I913 residues) expressed in bacterial expression system assessed as residual activity at 50 nM by Kinomescan method relative to control
[12] = target: Fibroblast growth factor receptor 1 (Homo sapiens) (UniProt P11362); experiment: Inhibition of wild-type human partial length FGFR1 (P357 to V669 residues) expressed in bacterial expression system assessed as residual activity at 50 nM by Kinomescan method relative to control
[13] = target: Calcium/calmodulin-dependent protein kinase kinase 2 (Homo sapiens) (UniProt Q96RR4); experiment: Inhibition of wild-type human partial length CAMKK2 (D65 to V471 residues) expressed in bacterial expression system assessed as residual activity at 50 nM by Kinomescan method relative to control
[14] = target: Dual specificity mitogen-activated protein kinase kinase 2 (Homo sapiens) (UniProt P36507); experiment: Inhibition of wild-type human full length MAP2K2 (M1 to V400 residues) expressed in mammalian expression system assessed as residual activity at 50 nM by Kinomescan method relative to control
[15] = target: Tyrosine-protein kinase FRK (Homo sapiens) (UniProt P42685); experiment: Inhibition of wild-type human partial length FRK (A215 to F503 residues) expressed in bacterial expression system assessed as residual activity at 50 nM by Kinomescan method relative to control
Sequence of Tyrosine-protein kinase FRK (Homo sapiens) (P42685 whole entry, the tested form may be a part): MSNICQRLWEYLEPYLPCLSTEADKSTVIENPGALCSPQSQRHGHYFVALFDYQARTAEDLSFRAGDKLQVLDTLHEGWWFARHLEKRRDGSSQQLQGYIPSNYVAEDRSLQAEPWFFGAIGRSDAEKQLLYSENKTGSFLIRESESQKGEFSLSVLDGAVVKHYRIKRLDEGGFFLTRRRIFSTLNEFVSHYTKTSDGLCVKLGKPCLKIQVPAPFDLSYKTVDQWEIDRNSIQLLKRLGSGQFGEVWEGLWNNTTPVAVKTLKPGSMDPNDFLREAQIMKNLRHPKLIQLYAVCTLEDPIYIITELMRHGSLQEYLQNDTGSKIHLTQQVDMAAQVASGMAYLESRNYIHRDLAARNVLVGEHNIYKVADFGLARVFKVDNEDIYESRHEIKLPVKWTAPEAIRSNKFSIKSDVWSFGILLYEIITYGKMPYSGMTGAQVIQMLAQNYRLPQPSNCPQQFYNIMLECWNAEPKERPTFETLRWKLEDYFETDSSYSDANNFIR

[16] = target: Calcium/calmodulin-dependent protein kinase kinase 1 (Homo sapiens) (UniProt Q8N5S9); experiment: Inhibition of wild-type human partial length CAMKK1 (R65 to E414 residues) expressed in bacterial expression system assessed as residual activity at 50 nM by Kinomescan method relative to control
Sequence of Calcium/calmodulin-dependent protein kinase kinase 1 (Homo sapiens) (Q8N5S9 whole entry, looked up, the tested form may be a part): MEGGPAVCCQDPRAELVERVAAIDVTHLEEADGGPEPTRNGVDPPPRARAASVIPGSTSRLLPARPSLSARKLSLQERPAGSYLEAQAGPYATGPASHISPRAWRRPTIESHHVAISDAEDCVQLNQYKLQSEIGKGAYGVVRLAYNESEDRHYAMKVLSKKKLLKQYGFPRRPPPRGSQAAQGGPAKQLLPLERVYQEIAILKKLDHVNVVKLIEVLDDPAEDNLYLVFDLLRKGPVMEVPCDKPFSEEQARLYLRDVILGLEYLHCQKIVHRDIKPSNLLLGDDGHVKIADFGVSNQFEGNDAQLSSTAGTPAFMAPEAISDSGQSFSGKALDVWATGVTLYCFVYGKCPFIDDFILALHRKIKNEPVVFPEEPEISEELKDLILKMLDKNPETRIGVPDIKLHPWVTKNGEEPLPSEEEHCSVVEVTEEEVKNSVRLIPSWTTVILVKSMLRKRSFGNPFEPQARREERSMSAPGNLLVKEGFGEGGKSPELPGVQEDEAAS

[17] = target: Tyrosine-protein kinase ABL1 (Homo sapiens) (UniProt P00519); experiment: Inhibition of wild-type human non-phosphorylated ABL1 (S229 to K512 residues) expressed in mammalian expression system assessed as residual activity at 50 nM by Kinomescan method relative to control
[18] = target: CDK4/Cyclin D3 (Homo sapiens) (UniProt P11802+P30281); experiment: Inhibition of wild-type human full length CDK4/cyclinD3 (M1 to E303 residues) expressed in mammalian expression system assessed as residual activity at 50 nM by Kinomescan method relative to control
[19] = target: Serine/threonine-protein kinase Chk2 (Homo sapiens) (UniProt O96017); experiment: Inhibition of wild-type human partial length CHK2 (S253 to E574 residues) expressed in bacterial expression system assessed as residual activity at 50 nM by Kinomescan method relative to control
[20] = target: Ephrin type-B receptor 1 (Homo sapiens) (UniProt P54762); experiment: Inhibition of wild-type human partial length EPHB1 (P589 to T911 residues) expressed in bacterial expression system assessed as residual activity at 50 nM by Kinomescan method relative to control
[21] = target: Ribosomal protein S6 kinase alpha-4 (Homo sapiens) (UniProt O75676); experiment: Inhibition of wild-type human partial length N-terminal MSK2 kinase domain 1 expressed in bacterial expression system assessed as residual activity at 50 nM by Kinomescan method relative to control
Sequence of Ribosomal protein S6 kinase alpha-4 (Homo sapiens) (O75676 whole entry, looked up, the tested form may be a part): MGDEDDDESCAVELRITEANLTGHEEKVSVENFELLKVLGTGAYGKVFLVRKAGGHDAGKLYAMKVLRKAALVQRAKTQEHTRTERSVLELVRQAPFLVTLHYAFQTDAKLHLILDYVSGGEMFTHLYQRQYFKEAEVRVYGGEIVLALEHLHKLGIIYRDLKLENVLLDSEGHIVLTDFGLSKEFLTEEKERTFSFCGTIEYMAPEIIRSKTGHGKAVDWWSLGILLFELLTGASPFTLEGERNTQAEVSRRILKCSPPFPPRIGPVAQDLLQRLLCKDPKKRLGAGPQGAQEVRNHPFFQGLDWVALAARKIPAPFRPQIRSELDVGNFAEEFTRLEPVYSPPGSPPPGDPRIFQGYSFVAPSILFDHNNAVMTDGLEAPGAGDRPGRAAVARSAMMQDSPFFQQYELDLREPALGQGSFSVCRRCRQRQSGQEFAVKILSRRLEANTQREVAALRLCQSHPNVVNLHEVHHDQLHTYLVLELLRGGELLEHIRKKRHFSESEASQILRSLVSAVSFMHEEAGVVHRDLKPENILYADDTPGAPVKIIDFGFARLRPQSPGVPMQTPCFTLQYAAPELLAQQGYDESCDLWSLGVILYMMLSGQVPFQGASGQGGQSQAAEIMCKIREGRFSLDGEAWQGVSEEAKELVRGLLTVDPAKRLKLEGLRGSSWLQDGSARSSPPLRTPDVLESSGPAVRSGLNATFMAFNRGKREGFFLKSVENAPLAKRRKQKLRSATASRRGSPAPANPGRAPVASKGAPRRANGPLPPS

[22] = target: Cyclin-dependent kinase 16 (Homo sapiens) (UniProt Q00536); experiment: Inhibition of wild-type human partial length PCTAIRE1 (G160 to A474 residues) expressed in mammalian expression system assessed as residual activity at 50 nM by Kinomescan method relative to control
[23] = target: Phosphatidylinositol 4,5-bisphosphate 3-kinase catalytic subunit beta isoform (Homo sapiens) (UniProt P42338); experiment: Inhibition of wild-type human partial length PI3KCB (P118 to S1070 residues) expressed in mammalian expression system assessed as residual activity at 50 nM by Kinomescan method relative to control
[24] = target: Serine/threonine-protein kinase D2 (Homo sapiens) (UniProt Q9BZL6); experiment: Inhibition of wild-type human partial length PKD2 (A519 to E838 residues) expressed in bacterial expression system assessed as residual activity at 50 nM by Kinomescan method relative to control
[25] = target: TGF-beta receptor type-1 (Homo sapiens) (UniProt P36897); experiment: Inhibition of wild-type human partial length TGFBR1 (D179 to M503 residues) expressed in bacterial expression system assessed as residual activity at 50 nM by Kinomescan method relative to control
Sequence of TGF-beta receptor type-1 (Homo sapiens) (P36897 whole entry, the tested form may be a part): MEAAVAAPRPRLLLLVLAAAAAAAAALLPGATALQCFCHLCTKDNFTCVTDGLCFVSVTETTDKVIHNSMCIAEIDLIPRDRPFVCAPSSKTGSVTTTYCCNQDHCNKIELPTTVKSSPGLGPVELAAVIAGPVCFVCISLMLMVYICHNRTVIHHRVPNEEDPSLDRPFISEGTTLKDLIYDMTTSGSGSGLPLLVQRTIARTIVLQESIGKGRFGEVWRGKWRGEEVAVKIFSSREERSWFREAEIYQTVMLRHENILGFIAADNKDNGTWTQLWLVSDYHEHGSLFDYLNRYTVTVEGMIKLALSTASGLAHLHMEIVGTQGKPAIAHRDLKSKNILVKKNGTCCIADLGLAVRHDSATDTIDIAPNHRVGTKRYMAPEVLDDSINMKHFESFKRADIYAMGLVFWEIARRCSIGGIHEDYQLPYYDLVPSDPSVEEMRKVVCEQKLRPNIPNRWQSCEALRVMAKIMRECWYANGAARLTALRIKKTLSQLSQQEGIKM

| SMILES | Activity [1] | Activity [2] | Activity [3] | Activity [4] | Activity [5] | Activity [6] | Activity [7] | Activity [8] | Activity [9] | Activity [10] | Activity [11] | Activity [12] | Activity [13] | Activity [14] | Activity [15] | Activity [16] | Activity [17] | Activity [18] | Activity [19] | Activity [20] | further results |
| --- | --- | --- | --- | --- | --- | --- | --- | --- | --- | --- | --- | --- | --- | --- | --- | --- | --- | --- | --- | --- | --- |
| COc1ccc(-c2cc3c(N[C@@H]4CC[C@](C)(N)C4(C)C)c(C(N)=O)cnn3c2)cn1 | 27% | 18% | 30% | 64% | 98% | 98% | 100% | 100% | 90% | 80% | 93% | 92% | 64% | 100% | 100% | 100% | 90% | 80% | 100% | 88% | Activity [21]: 100%; Activity [22]: 89%; Activity [23]: 100%; Activity [24]: 100%; Activity [25]: 95% |
| CC1(C)[C@H](Nc2c(C(N)=O)cnn3cc(-c4ccccc4)cc23)CC[C@]1(C)N | 3% | 3.6% | 9.5% | 53% | 55% | 59% | 66% | 72% | 72% | 78% | 80% | 81% | 83% | 84% | 89% | 92% | 100% | 100% | 100% | 100% | Activity [21]: 100%; Activity [22]: 100%; Activity [23]: 100%; Activity [24]: 100%; Activity [25]: 100% |
